Test results published in patent US8530648B2, “Diaza-spiro[5.5]undecanes” (Novartis AG, priority 2009, dated 2013).

How the values were obtained:
[1] = target: hOx2R (Homo sapiens (Human), UniProt O43614); assay: Calcium accumulation in cells (FLIPR), hOx2R; type: cell-based; conditions: for Ki: inhibition of orexin A induced calcium accumulation, Cheng and Prusoff correction; for inhibition at 10 µM: measured at a concentration of 10 μM of compound
Method: (§1) Calcium Accumulation in Cells (FLIPR):
(§2) Cells expressing human orexin 1 or human orexin 2 receptors, were seeded at 8,000 cells/well in 384 well black-walled clear bottom, poly-D-lysine coated plates. After 24 h, the medium was removed and cells were washed once with phosphate buffered saline and serum-deprived overnight in assay buffer (130 mM NaCl, 5.4 mM KCl, 1.8 mM CaCl2, 0.8 mM MgSO4, 0.9 mM NaH2PO4, 25 mM glucose, 20 mM HEPES, pH 7.4) containing bovine serum albumin (1% w/v).
(§3) On the day of the experiment, the cells seeded in black plates were treated with assay buffer containing the Ca^2+ sensitive fluorescent dye Fluo-4-AM (2 μM), and probenecid (0.1 mM). After 1 h plates were washed twice with, and resuspended in, assay buffer containing probenecid (0.1 mM) using a multi plate washer. […] Fluorescence measurements were then continued every 1 S for 120 S followed by every 4 S for 240 S.
(§4) The measurements were typically made in two sequences:
(§5) Compounds of formula I were tested usually in a concentration range from 10^−9 M to 10^−5 M.
(§6) In the second round, performed one hour later (to allow for equilibration), Orexin A was tested either in the absence (calibration curves, Orexin A agonist controls) or in the presence of compounds of formula I to determine antagonism.

[2] = target: hOx1R (Homo sapiens (Human), UniProt O43613); assay: Calcium accumulation in cells (FLIPR), hOx1R; type: cell-based; conditions: for inhibition at 10 µM: measured at a concentration of 10 μM of compound; for Ki: inhibition of orexin A induced calcium accumulation, Cheng and Prusoff correction
Sequence of hOx1R (O43613 whole entry): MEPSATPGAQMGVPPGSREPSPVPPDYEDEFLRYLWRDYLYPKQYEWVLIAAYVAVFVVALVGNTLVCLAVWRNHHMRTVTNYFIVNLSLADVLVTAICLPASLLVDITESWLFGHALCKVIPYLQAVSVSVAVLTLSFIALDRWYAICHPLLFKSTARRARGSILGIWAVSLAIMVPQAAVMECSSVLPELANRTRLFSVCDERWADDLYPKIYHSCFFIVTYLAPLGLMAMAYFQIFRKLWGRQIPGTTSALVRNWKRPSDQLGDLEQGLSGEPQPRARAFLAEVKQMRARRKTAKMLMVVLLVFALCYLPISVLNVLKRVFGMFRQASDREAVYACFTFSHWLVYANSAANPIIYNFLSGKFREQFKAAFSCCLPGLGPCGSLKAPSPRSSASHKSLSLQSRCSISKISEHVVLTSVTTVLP
Method: as §1, §2, §3, §4, §5, §6

Sequence of hOx2R (O43614 whole entry): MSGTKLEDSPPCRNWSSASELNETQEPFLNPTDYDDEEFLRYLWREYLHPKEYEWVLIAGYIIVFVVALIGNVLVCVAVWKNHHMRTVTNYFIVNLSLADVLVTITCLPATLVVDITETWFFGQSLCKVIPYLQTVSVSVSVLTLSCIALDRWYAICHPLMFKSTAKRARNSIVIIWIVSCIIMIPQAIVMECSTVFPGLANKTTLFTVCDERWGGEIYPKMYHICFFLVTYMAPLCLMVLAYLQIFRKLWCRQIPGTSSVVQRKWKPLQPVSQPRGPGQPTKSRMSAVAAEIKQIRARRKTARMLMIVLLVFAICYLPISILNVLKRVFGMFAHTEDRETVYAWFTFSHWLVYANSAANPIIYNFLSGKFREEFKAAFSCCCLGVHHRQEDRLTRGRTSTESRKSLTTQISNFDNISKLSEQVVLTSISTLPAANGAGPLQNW

Ki [1] [nM] | inhibition at 10 µM [2] [%] | Ki [2] [nM] | inhibition at 10 µM [1] [%] | Compound
725 | 31 | – | – | O=C1N(Cc2nnnn2-c2ccccc2)CCCC12CCN(c1cnc3ccccc3n1)CC2 [Example 122, 2-((1-phenyl-1H-tetrazol-5-yl)methyl)-9-(quinoxalin-2-yl)-2,9-diazaspiro[5.5]undecan-1-one]
822 | 15 | – | – | O=C1N(Cc2ccccc2-n2cccn2)CCCC12CCN(c1cnc3ccccc3n1)CC2 [Example 85, 2-(2-(1H-pyrazol-1-yl)benzyl)-9-(quinoxalin-2-yl)-2,9-diazaspiro[5.5]undecan-1-one]
115 | – | 646 | – | O=C1N(Cc2c[nH]c3ccccc23)CCCC12CCN(c1nccc(-c3ccccc3)n1)CC2 [Example 154, 2-((1H-indol-3-yl)methyl)-9-(4-phenylpyrimidin-2-yl)-2,9-diazaspiro[5.5]undecan-1-one]
649 | – | 3060 | – | N#Cc1cccc(CN2CCCC3(CCN(c4cnc5ccccc5n4)CC3)C2=O)c1 [Example 92, 3-((1-oxo-9-(quinoxalin-2-yl)-2,9-diazaspiro[5.5]undecan-2-yl)methyl)benzonitrile]
483 | – | 2040 | – | O=C1N(Cc2ccnc(N3CCOCC3)c2)CCCC12CCN(c1cnc3ccccc3n1)CC2 [Example 56, 2-((2-morpholinopyridin-4-yl)methyl)-9-(quinoxalin-2-yl)-2,9-diazaspiro[5.5]undecan-1-one]
1200 | 57 | – | – | Cc1cc(C)n(-c2ccccc2CN2CCCC3(CCN(c4cnc5ccccc5n4)CC3)C2=O)n1 [Example 115, 2-(2-(3,5-dimethyl-1H-pyrazol-1-yl)benzyl)-9-(quinoxalin-2-yl)-2,9-diazaspiro[5.5]undecan-1-one]
239 | – | 1530 | – | O=C1N(Cc2c[nH]c3ccccc23)CCCC12CCN(c1ncnc3[nH]ccc13)CC2 [Example 155, 2-((1H-indol-3-yl)methyl)-9-(7H-pyrrolo[2,3-d]pyrimidin-4-yl)-2,9-diazaspiro[5.5]undecan-1-one]
161 | – | 1440 | – | O=C1CCCC2(CCN(c3cnc4ccccc4n3)CC2)N1Cc1ccccc1 [Example 134, 1-benzyl-9-(quinoxalin-2-yl)-1,9-diazaspiro[5.5]undecan-2-one]
786 | – | 2480 | – | O=C1N(Cc2c[nH]c3ccccc23)CCCC12CCN(c1nnc(-c3ccccc3)s1)CC2 [Example 171, 2-((1H-indol-3-yl)methyl)-9-(5-phenyl-1,3,4-thiadiazol-2-yl)-2,9-diazaspiro[5.5]undecan-1-one]
614 | – | 1700 | – | O=C1N(Cc2cccc(Cl)c2)CCCC12CCN(c1nccc(-c3ccccc3)n1)CC2 [Example 29, 2-(3-chlorobenzyl)-9-(4-phenylpyrimidin-2-yl)-2,9-diazaspiro[5.5]undecan-1-one]
205 | – | 945 | – | Cc1ccc(C)c(CN2CCCC3(CCN(c4cnc5ccccc5n4)CC3)C2=O)c1 [Example 20, 2-(2,5-dimethylbenzyl)-9-(quinoxalin-2-yl)-2,9-diazaspiro[5.5]undecan-1-one]
151 | – | 932 | – | O=C1N(Cc2cccc3cnccc23)CCCC12CCN(c1cnc3ccccc3n1)CC2 [Example 55, 2-(isoquinolin-5-ylmethyl)-9-(quinoxalin-2-yl)-2,9-diazaspiro[5.5]undecan-1-one]
– | – | 2870 | 38 | COc1ccnc(CN2CCCC3(CCN(c4cnc5ccccc5n4)CC3)C2=O)c1OC [Example 91, 2-((3,4-dimethoxypyridin-2-yl)methyl)-9-(quinoxalin-2-yl)-2,9-diazaspiro[5.5]undecan-1-one]
163 | – | 1110 | – | Cc1cccc(-c2sc(C)nc2CN2CCCC3(CCN(c4cnc5ccccc5n4)CC3)C2=O)c1 [Example 69, 2-((2-methyl-5-m-tolylthiazol-4-yl)methyl)-9-(quinoxalin-2-yl)-2,9-diazaspiro[5.5]undecan-1-one]
156 | – | 1160 | – | O=C1N(Cc2c[nH]c3ccccc23)CCCC12CCN(c1nccc(-c3ccncc3)n1)CC2 [Example 166, 2-((1H-indol-3-yl)methyl)-9-(4-(pyridin-4-yl)pyrimidin-2-yl)-2,9-diazaspiro[5.5]undecan-1-one]
524 | 48 | – | – | O=C1N(Cc2c[nH]c3ccccc23)CCCC12CCN(c1nc3cc(Cl)ccc3o1)CC2 [Example 131, 2-((1H-indol-3-yl)methyl)-9-(5-chlorobenzo[d]oxazol-2-yl)-2,9-diazaspiro[5.5]undecan-1-one]

Ki [1] [nM] | inhibition at 10 µM [2] [%] | Ki [2] [nM] | inhibition at 10 µM [1] [%] | Compound
225 | – | 2430 | – | COc1cccc(CN2CCCC3(CCN(c4cnc5ccccc5n4)CC3)C2=O)c1F [Example 102, 2-(2-fluoro-3-methoxybenzyl)-9-(quinoxalin-2-yl)-2,9-diazaspiro[5.5]undecan-1-one]
140 | – | 932 | – | N#Cc1ccccc1CN1CCCC2(CCN(c3cnc4ccccc4n3)CC2)C1=O [Example 124, 2-((1-oxo-9-(quinoxalin-2-yl)-2,9-diazaspiro[5.5]undecan-2-yl)methyl)benzonitrile]
168 | – | 614 | – | Cn1ccc2c(CN3CCCC4(CCN(c5cnc6ccccc6n5)CC4)C3=O)cccc21 [Example 26, 2-((1-methyl-1H-indol-4-yl)methyl)-9-(quinoxalin-2-yl)-2,9-diazaspiro[5.5]undecan-1-one]
– | 29 | – | 13 | N#Cc1ccc(CN2CCCC3(CCN(c4cnc5ccccc5n4)CC3)C2=O)cn1 [Example 100, 5-((1-oxo-9-(quinoxalin-2-yl)-2,9-diazaspiro[5.5]undecan-2-yl)methyl)picolinonitrile]
158 | – | 1310 | – | O=C1N(Cc2nccc3ccccc23)CCCC12CCN(c1cnc3ccccc3n1)CC2 [Example 93, 2-(isoquinolin-1-ylmethyl)-9-(quinoxalin-2-yl)-2,9-diazaspiro[5.5]undecan-1-one]
1580 | 13 | – | – | O=C1N(Cc2ccc(-n3cncn3)cc2)CCCC12CCN(c1cnc3ccccc3n1)CC2 [Example 81, 2-(4-(1H-1,2,4-triazol-1-yl)benzyl)-9-(quinoxalin-2-yl)-2,9-diazaspiro[5.5]undecan-1-one]
555 | – | 3180 | – | O=C1N(Cc2cccc3c2OCCN3)CCCC12CCN(c1cnc3ccccc3n1)CC2 [Example 132, 2-((3,4-dihydro-2H-benzo[b][1,4]oxazin-8-yl)methyl)-9-(quinoxalin-2-yl)-2,9-diazaspiro[5.5]undecan-1-one]
1970 | – | 3790 | – | O=C1CCCC2(CCN(c3nc4ccccc4[nH]3)CC2)N1Cc1cccc2[nH]ccc12 [Example 138, 1-((1H-indol-4-yl)methyl)-9-(1H-benzo[d]imidazol-2-yl)-1,9-diazaspiro[5.5]undecan-2-one]
– | 11 | – | 24 | O=C1N(Cc2ccc3[nH]ccc3c2)CCCC12CCN(c1cnc3ccccc3n1)CC2 [Example 123, 2-((1H-indol-5-yl)methyl)-9-(quinoxalin-2-yl)-2,9-diazaspiro[5.5]undecan-1-one]
247 | – | 1720 | – | Cc1cccc(CN2CCCC3(CCN(c4cnc5ccccc5n4)CC3)C2=O)c1C [Example 17, 2-(2,3-dimethylbenzyl)-9-(quinoxalin-2-yl)-2,9-diazaspiro[5.5]undecan-1-one]
1180 | – | 3690 | – | COc1ccc(-c2nnc(CN3CCCC4(CCN(c5cnc6ccccc6n5)CC4)C3=O)o2)cc1 [Example 31, 2-((5-(4-methoxyphenyl)-1,3,4-oxadiazol-2-yl)methyl)-9-(quinoxalin-2-yl)-2,9-diazaspiro[5.5]undecan-1-one]
713 | 40 | – | – | O=C1N(Cc2c[nH]c3ccccc23)CCCC12CCN(c1ccc(-c3nccs3)cn1)CC2 [Example 161, 2-((1H-indol-3-yl)methyl)-9-(5-(thiazol-2-yl)pyridin-2-yl)-2,9-diazaspiro[5.5]undecan-1-one]
596 | – | 3250 | – | CN1CCOc2c(CN3CCCC4(CCN(c5cnc6ccccc6n5)CC4)C3=O)cccc21 [Example 144, 2-((4-methyl-3,4-dihydro-2H-benzo[b][1,4]oxazin-8-yl)methyl)-9-(quinoxalin-2-yl)-2,9-diazaspiro[5.5]undecan-1-one]
– | 40 | – | 46 | Cc1cc(CN2CCCC3(CCN(c4cnc5ccccc5n4)CC3)C2=O)nn1C [Example 84, 2-((1,5-dimethyl-1H-pyrazol-3-yl)methyl)-9-(quinoxalin-2-yl)-2,9-diazaspiro[5.5]undecan-1-one]
– | 11 | – | 27 | O=C1N(Cc2ccncc2)CCCC12CCN(c1cnc3ccccc3n1)CC2 [Example 67, 2-(pyridin-4-ylmethyl)-9-(quinoxalin-2-yl)-2,9-diazaspiro[5.5]undecan-1-one]
185 | – | 242 | – | O=C1CCCC2(CCN(c3cnc4ccccc4n3)CC2)N1Cc1noc2ccccc12 [Example 135, 1-(benzo[d]isoxazol-3-ylmethyl)-9-(quinoxalin-2-yl)-1,9-diazaspiro[5.5]undecan-2-one]
